For one series, the system named is HepG2 2.2.15. The series is described as follows: Cytotoxicity against human HepG2.2.15 cells assessed as reduction in cell viability incubated for 72 hrs by cell titer-glo assay. The format is functional.
The nature of series [1]: Half life in Sprague-Dawley rat at 2 mg/kg, po measured up to 24 hrs by LC-MS/MS analysis. The format is ADME, organism-based. The settings on record: in vivo.
The nature of series [2]: Cmax in Sprague-Dawley rat at 2 mg/kg, po measured up to 24 hrs by LC-MS/MS analysis. The following applies: in vivo. More on the design: route oral, dose 2 mg/kg, time <=24. It is filed as ADME, organism-based.
The nature of series [3]: Clearance in Sprague-Dawley rat at 1 mg/kg, iv measured up to 24 hrs by LC-MS/MS analysis. The format is ADME, organism-based. The following applies: in vivo.
Series [4] can be described thus: AUC(0 to 24 hrs) in Sprague-Dawley rat at 2 mg/kg, po measured up to 24 hrs by LC-MS/MS analysis. Details: route oral, dose 2 mg/kg, time <=24. The following applies: in vivo. The format is ADME, organism-based.

Molecules are shown by their SMILES. Activity calls are given as the source filed them. No cut-off for these calls is given here. Some results are limits rather than exact numbers.

Regarding `CC1CN(C(=O)Nc2ccc(F)c(C#N)c2)Cc2c(C(=O)N[C@H](C)C(F)(F)F)ncn21` (single isomer, unassigned), the 50% cytotoxic concentration (CC50) with HepG2 2.2.15 was above 100 µM. `C[C@H]1Cn2cnc(C(=O)N[C@H](C)C(F)(F)F)c2CN1C(=O)Nc1cc(F)nc(F)c1`: the CC50 with HepG2 2.2.15 is above 100 µM.

For `C[C@H](NC(=O)c1ncn2c1CN(C(=O)Nc1ccc(F)c(C#N)c1)[C@@H](C)C2)C(F)(F)F`, the result with HepG2 2.2.15 was inactive. Regarding `C[C@@H]1Cn2cnc(C(=O)N[C@H](C)C(F)(F)F)c2CN1C(=O)Nc1ccc(F)c(F)c1`, the CC50 with HepG2 2.2.15 was above 100 µM. In the case of `C[C@H]1Cn2ncc(C(=O)N[C@H](C)C(F)(F)F)c2CN1C(=O)Nc1cc(F)nc(F)c1`, in the series on HepG2 2.2.15, the cytotoxic concentration (CC50) is above 100 µM.

Turning to `Cc1cc(NC(=O)N2Cc3c(C(=O)N[C@H](C)C(F)(F)F)ncn3C[C@@H]2C)ccc1F`, the half-maximal cytotoxic concentration (CC50) with HepG2 2.2.15 was above 100 µM. In addition, the half-life in series [1] was 3.87 h. Further, the concentration in series [2] peaked (Cmax) at 492 ng/mL. Also, the clearance in series [3] was found to be 26.6 mL/min/kg. Also, the AUC in series [4] is 2.12 µg/mL/h.

These data come from ChEMBL document CHEMBL5046309, “Discovery of SHR5133, a Highly Potent and Novel HBV Capsid Assembly Modulator” (ACS Med Chem Lett, 2022).
